Test results taken from PMC8151276, “An Integrated Approach toward NanoBRET Tracers for Analysis of GPCR Ligand Engagement” (Molecules, 2021).

Legend:
ADORA3 = biological target: T1, ADORA3 (Homo sapiens, UniProt P0DMS8); assay: NanoBRET screen HiBiT-ADORA3 in HEK293; assay type: binding; details: ADORA3
T1 construct: purchased Promega (in-house HiBiT-GPCR construct library, NanoBRET)
T1 sequence (P0DMS8 1-318): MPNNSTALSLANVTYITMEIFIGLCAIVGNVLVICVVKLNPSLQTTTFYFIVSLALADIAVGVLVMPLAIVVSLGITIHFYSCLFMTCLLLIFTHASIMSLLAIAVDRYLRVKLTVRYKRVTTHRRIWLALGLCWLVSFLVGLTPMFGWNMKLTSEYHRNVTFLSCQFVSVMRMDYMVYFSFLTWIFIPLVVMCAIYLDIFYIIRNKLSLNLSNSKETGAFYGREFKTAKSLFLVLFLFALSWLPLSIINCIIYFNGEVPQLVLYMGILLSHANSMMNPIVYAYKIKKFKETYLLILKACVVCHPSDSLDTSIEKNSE
Procedure: (§1) Each tracer candidate was screened across the entire library of HiBiT-GPCR constructs using NanoBRET as the detection modality. As depicted in Figure 4A, the specificity of interactions was evaluated through decrease in BRET due to competitive displacement of a bound tracer by excess parental compound. Each tracer was analyzed for binding to each HiBiT-GPCR fusion in the absence and in the presence of competing parental compound. Briefly, HEK293 cells were transfected with HiBiT-GPCR constructs diluted into promoterless DNA to reduce expression and maximize translocation to the cell surface. Each tracer candidate was then screened at concentrations of 1 μM and 0.1 μM across cells expressing these fusions. Cells were treated for 1.5 h with tracer either alone or in the presence of 20 μM competing parental compound (i.e., control). BRET was measured upon addition of purified LgBiT and subsequent complementation with HiBiT genetically fused to a GPCR. The specificity of interactions was assessed through a decrease in BRET signal due to competitive displacement of the bound tracer. To further gauge the robustness of these interactions, the fold response over the control (i.e., BRETtracer/BRETcontrol) was calculated. We chose a 1.5-fold response, which translates to ≥7-fold signal over noise as the minimal threshold required to score an interaction as positive. […]. Below we highlight the screening results obtained for our exemplary fluorescent tracers based on Clozapine, Amitriptyline and AZD1283.
(§2) HiBiT-GPCR DNA constructs were diluted in 10 mM Tris pH 8 to a final concentration of 0.01 μg/μL, arrayed in 96-well plates and stored at −20 °C. For transfection, HEK293 cells were suspended in Opti-MEM (without phenol red) supplemented with 2% fetal bovine serum (Seradigm) and 100 units/mL penicillin–streptomycin (Gibco) at a final concentration of 220,000 cells/mL and dispensed into white 96-well plates at 90 μL/well. Subsequent transfections and screens were carried using an Agilent Bravo Automated Liquid Handling Platform. First, the 96-well HiBiT DNA arrays were diluted 25-fold in Opti-MEM (without serum or phenol red) to a final concentration of 0.0004 μg/μL and 20 μL of the diluted DNAs were transferred into new 96-well plates. Next, promoterless carrier DNA (1 μg/μL) was diluted 25-fold (0.04 μg/μL) and then dispensed into the diluted arrays at 20 μL/well. Following brief mixing, Viafect transfection reagent (Promega) diluted 16-fold into Opti-MEM was dispensed into the plates at 40 μL/well. After mixing by pipetting, plates were incubated for 10 min on the pipetting station deck. The DNA-transfection reagent complexes were then added to plates containing cells. To facilitate the screen, 10 μL of DNA-transfection reagent complexes were added in duplicates to the top 4 and bottom 4 rows, resulting in two identical 48-well arrays per plate. Plates with transfected cells were incubated for 18–20 h at 37 °C/5% CO2. A screen of each tracer across the entire library using two different concentrations requires duplicate plates of transfected cells. Depending on the number of tracers being screened, transfections can be scaled up using the same ratios. The next day, for each tracer, four 20× screening solutions in tracer dilution buffer (Promega) were prepared: two duplicates at final concentration of 20 μM and two duplicates at a final concentration of 2 μM. A competing unmodified compound was added to one of each duplicate at a final concentration of 400 μM. The four resulting solutions were diluted 4-fold in Opti-MEM without serum or phenol red to generate 5× solutions (5 µM and 0.5 µM tracer +/− 100 μM competing compound). To screen the library, a BioTek MultiFlo FX liquid dispenser was used to dispense 22.5 µL of tracer solution to the top 4 rows and 22.5 µL tracer + competing compound solution to the 4 bottom rows. Plates were briefly mixed on an orbital shaker and incubated for 1.5 h at room temperature. […]

MLNR = biological target: T2, MLNR (Homo sapiens, UniProt O43193); assay: NanoBRET screen HiBiT-MLNR in HEK293; assay type: binding; details: MLNR
T2 construct: purchased Promega (in-house HiBiT-GPCR construct library, NanoBRET)
T2 sequence (O43193 whole entry): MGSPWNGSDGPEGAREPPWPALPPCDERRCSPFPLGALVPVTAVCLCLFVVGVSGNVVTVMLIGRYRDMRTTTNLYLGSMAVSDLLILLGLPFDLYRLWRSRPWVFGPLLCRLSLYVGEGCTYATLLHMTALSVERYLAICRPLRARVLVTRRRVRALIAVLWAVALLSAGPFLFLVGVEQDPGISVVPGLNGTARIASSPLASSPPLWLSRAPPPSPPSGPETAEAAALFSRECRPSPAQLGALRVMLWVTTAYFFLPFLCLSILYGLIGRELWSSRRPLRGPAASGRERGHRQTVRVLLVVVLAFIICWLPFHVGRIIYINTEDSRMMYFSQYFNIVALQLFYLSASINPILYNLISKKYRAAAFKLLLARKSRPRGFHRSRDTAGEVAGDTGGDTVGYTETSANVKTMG
Procedure: as §1, §2

Q: How did the “NanoBRET Fold Response” value (ADORA3; 0.1μM tracer) turn out when CN1CCN(C2=Nc3cc(Cl)ccc3Nc3ccc(CNC(=O)CCOCCOCCOCCOCCNC(=O)CCc4ccc5n4[B-](F)(F)[N+]4=C(c6ccc[nH]6)C=CC4=C5)cc32)CC1 [Clozapine-b-2-NB590] was run?
A: 1.02

Q: What about the “NanoBRET Fold Response” value (ADORA3; 1μM tracer) of the same compound?
A: 1.08

Q: What about the “NanoBRET Fold Response” value (MLNR; 0.1μM tracer) of the same compound?
A: 1.02

Q: What about the “NanoBRET Fold Response” value (MLNR; 1μM tracer) of the same compound?
A: 1.41
